Data set [1] in a line: PAMPA-BBB permeation assay. Particulars: for Prediction (PAMPA-BBB) (CNS+, CNS−): class from Pe; for Papp at 20 h: PAMPA, pH 7.4.
The target in the next data set is eeAChE (Electrophorus electricus, UniProt O42275). Nature of the data set: AChE inhibition, modified Ellman's method. Type of data set: biochemical, Electrophorous electricus. Particulars: for SI (IC50 eqBChE/IC50 eeAChE): selectivity index toward eeAChE. (In general: DTNB colorimetry detects thiols as they appear.)
Sequence of eeAChE (O42275 24-633): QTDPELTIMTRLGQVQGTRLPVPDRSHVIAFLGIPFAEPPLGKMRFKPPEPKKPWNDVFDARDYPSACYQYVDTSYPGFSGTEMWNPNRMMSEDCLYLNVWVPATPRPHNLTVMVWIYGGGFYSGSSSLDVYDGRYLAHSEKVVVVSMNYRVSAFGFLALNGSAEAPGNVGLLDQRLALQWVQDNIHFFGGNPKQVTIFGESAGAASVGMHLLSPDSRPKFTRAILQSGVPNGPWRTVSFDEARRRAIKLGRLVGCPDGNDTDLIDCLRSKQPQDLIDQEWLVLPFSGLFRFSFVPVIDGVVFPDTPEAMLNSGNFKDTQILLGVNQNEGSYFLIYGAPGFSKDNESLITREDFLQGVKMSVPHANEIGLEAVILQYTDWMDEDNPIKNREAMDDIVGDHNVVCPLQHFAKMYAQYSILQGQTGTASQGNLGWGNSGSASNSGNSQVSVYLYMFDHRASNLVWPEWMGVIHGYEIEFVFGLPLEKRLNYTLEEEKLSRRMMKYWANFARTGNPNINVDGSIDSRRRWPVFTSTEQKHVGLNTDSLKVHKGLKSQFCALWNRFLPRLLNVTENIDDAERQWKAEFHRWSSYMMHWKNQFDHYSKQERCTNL
The next data set addresses T1, hMAO-A (Homo sapiens, UniProt P21397).
T1 sequence (P21397 1-527): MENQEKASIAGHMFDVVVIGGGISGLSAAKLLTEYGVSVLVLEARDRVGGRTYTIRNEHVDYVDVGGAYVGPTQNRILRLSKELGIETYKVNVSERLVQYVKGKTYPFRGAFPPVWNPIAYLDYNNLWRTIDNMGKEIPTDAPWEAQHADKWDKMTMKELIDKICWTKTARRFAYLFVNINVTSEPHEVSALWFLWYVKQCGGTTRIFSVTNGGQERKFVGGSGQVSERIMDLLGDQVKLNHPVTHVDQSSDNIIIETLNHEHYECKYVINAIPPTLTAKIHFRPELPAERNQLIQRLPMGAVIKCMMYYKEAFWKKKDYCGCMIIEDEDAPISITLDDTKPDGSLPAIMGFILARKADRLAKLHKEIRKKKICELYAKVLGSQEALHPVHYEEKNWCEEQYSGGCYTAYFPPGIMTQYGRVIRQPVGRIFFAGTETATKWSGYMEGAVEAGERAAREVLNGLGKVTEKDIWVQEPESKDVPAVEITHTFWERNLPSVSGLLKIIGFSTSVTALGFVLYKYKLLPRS
Description: MAO-A inhibition, fluorometric method. In kind it is biochemical.

A further data set has as its target T2, 5-LOX (Glycine max, UniProt P08170).
T2 sequence (P08170 1-839): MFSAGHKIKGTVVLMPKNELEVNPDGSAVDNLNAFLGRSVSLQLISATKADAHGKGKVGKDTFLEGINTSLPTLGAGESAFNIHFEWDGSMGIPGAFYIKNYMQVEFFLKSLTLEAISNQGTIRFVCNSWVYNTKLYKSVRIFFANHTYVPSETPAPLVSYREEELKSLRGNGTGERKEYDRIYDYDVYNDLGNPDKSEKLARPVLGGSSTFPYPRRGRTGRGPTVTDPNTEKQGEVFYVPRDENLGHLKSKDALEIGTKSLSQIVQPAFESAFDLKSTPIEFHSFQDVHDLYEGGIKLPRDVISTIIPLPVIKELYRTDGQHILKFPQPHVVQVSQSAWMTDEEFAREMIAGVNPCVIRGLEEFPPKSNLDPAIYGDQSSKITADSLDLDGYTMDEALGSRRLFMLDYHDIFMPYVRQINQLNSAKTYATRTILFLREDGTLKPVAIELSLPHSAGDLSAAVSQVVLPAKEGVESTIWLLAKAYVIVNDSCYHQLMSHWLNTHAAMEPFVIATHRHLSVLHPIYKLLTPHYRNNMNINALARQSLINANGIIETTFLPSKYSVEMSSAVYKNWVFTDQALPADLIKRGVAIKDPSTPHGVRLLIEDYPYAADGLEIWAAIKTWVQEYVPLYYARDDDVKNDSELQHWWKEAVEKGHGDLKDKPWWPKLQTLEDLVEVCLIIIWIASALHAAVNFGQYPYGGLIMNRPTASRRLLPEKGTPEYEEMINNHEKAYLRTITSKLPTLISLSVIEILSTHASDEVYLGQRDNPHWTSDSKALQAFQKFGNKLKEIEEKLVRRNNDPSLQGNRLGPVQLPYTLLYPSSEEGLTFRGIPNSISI
Nature of the data set: 5-LOX inhibition assay. In kind it is biochemical, soybean.

A further data set has as its target eqBChE (Equus caballus, UniProt P81908). Nature of the data set: BChE inhibition, modified Ellman's method. Type of data set: biochemical, Equine.
The next data set addresses T3, hMAO-B (Homo sapiens, UniProt P27338).
T3 sequence (P27338 1-520): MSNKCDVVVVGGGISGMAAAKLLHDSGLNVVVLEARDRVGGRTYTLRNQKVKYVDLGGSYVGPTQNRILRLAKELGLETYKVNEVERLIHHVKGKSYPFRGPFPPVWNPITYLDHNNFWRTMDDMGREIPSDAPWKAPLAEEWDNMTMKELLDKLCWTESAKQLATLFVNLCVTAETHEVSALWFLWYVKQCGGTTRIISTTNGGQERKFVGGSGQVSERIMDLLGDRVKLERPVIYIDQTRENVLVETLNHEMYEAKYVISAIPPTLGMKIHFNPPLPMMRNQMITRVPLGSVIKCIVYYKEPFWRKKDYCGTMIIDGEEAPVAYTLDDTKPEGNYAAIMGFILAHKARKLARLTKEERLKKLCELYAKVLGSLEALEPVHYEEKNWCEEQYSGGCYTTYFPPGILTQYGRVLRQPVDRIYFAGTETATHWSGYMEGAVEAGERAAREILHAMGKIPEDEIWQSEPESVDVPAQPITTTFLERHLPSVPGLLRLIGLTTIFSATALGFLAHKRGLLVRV
Description: MAO-B inhibition, fluorometric method. Type of data set: biochemical. To be noted: for SI (IC50 hMAO-A/IC50 hMAO-B): selectivity index toward hMAO-B.

The target in another data set is T4, COX-2 (Homo sapiens, UniProt P35354).
T4 sequence (P35354 18-604): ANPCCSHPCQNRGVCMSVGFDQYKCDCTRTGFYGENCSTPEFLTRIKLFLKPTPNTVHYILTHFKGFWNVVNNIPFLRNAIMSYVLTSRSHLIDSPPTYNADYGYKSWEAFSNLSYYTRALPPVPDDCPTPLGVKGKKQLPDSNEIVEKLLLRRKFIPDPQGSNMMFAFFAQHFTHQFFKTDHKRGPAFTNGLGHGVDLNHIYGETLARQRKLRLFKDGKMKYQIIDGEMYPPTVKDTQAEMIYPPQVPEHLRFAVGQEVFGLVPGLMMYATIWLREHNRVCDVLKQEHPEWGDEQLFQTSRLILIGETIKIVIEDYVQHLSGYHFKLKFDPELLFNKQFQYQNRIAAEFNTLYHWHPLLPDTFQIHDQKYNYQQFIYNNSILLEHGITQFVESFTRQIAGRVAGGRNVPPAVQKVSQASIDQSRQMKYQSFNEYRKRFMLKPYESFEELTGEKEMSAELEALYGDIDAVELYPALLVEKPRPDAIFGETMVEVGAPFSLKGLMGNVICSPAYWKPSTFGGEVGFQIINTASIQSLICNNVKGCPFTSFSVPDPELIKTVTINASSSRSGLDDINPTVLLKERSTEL
Nature of the data set: biochemical. In kind it is biochemical.

A short description of data set [2]: In vivo acute toxicity study. To be noted: doses ranging from 50 to 2000 mg kg^−1 body weight.
For data set [3], the system named is neuroblastoma SH-SY5Y cells. Description: MTT assay for neurotoxicity. In kind it is cell-based. To be noted: 1, 10, 20, 40 and 80 μM, incubation for 48 hours.

Where two headings read alike, the source gives them in different places.

Sequence of eqBChE (P81908 whole entry): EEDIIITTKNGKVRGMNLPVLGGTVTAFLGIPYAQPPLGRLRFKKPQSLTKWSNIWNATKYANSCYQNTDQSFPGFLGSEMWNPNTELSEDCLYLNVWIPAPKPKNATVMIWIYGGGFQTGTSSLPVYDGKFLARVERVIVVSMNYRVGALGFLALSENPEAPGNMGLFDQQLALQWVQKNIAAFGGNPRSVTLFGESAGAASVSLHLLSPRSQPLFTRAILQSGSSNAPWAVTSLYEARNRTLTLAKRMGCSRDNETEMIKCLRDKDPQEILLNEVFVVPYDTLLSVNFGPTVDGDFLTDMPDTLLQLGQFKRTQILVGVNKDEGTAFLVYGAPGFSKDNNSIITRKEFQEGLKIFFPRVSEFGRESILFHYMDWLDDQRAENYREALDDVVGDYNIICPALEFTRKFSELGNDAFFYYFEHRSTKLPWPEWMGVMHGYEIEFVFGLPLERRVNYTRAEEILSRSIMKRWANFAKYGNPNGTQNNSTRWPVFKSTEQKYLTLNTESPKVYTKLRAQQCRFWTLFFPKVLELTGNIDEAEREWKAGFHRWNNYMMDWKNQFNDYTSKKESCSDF

With `CCn1cc(C(=O)O)c(=O)c2cc(F)c(N3CCNC(C)C3)c(F)c21` (stereo not shown) [Lomefloxacin, reference compound], the “Prediction (PAMPA-BBB) (CNS+, CNS−)” value in data set [1] was “CNS− (‘CNS−’ (prediction of low BBB permeation); Pe (10^−6 cm s^−1) < 1.78)”.

Turning to `O=C(CC1CC(=O)N(CCCSc2nnc(Cc3ccccc3Nc3c(Cl)cccc3Cl)n2-c2ccc(Cl)c(Cl)c2)C1=O)c1ccccc1` (stereo not shown) [Compound 32, 1-(3-((4-(3,4-Dichlorophenyl)-5-(2-((2,6-dichlorophenyl)amino)benzyl)-4H-1,2,4-triazol-3-yl)thio)propyl)-3-(2-oxo-2-phenylethyl)pyrrolidine-2,5-dione], the IC50 on eeAChE amounted to 0.39 ± 0.08 µM; against hMAO-A, 6.48 ± 0.39 µM; against 5-LOX it was 48.3 ± 1.42 µM; at eqBChE it was 3.39 ± 0.83 µM; on hMAO-B, 0.106 ± 0.004 µM. In addition, on eeAChE, the “SI (IC50 eqBChE/IC50 eeAChE)” value was determined as 8.7. For the same molecule, the “SI (IC50 hMAO-A/IC50 hMAO-B)” value on hMAO-B came out at 61.1.

On to `Sc1nnc(Cc2ccccc2Nc2c(Cl)cccc2Cl)n1-c1ccc(Cl)c(Cl)c1` [Compound 12, 5-(2-(2,6-dichlorophenylamino)benzyl)-4-(3,4 dichlorophenyl)-4H-1,2,4-triazole-3-thiol], for which the 50% inhibitory concentration (IC50) at eeAChE was found to be 2.58 ± 0.41 µM; against hMAO-A, 11.3 ± 1.01 µM; at 5-LOX, 75.5 ± 1.57 µM; against eqBChE, 56.4 ± 1.28 µM; against hMAO-B it was 13.1 ± 1.22 µM; at COX-2, 0.69 ± 0.13 µM. Besides, the “SI (IC50 eqBChE/IC50 eeAChE)” value on eeAChE amounted to 21.8. Further, on hMAO-B, the “SI (IC50 hMAO-A/IC50 hMAO-B)” value is on record as 0.8.

Take `NS(=O)(=O)c1ccc(N2N=C(c3ccc(NC(=O)Cc4ccccc4Nc4c(Cl)cccc4Cl)cc3)CC2c2ccc(Cl)cc2)cc1` (stereo not shown) [Compound 39, N-{4-[5-(4-chlorophenyl)-1-(4-sulfamoylphenyl)-4,5-dihydro-1H-pyrazol-3-yl]phenyl}-2-{2-[(2,6-dichlorophenyl)amino]phenyl}acetamide]: the Acute toxicity outcome in data set [2] was “all animals were found alive”. For the same molecule, the half-maximal inhibitory concentration (IC50) was determined as 0.03 ± 0.01 µM at eeAChE; 0.61 ± 0.08 µM on hMAO-A; 0.98 ± 0.01 µM on 5-LOX; 0.91 ± 0.16 µM at eqBChE; 0.01 ± 0.001 µM at hMAO-B; 0.6 ± 0.03 µM on COX-2. In addition, the “SI (IC50 eqBChE/IC50 eeAChE)” value at eeAChE is given as 30.33. Further, the “Neurotoxicity (cell viability, MTT)” value in [3] is given as “no neurotoxicity”. Further, the “SI (IC50 hMAO-A/IC50 hMAO-B)” value on hMAO-B was found to be 61. For the same molecule, in [1], the Papp at 20 h was 7.55 ± 0.14 ×10⁻⁶ cm/s. For the same molecule, in data set [1], the “Prediction (PAMPA-BBB) (CNS+, CNS−)” value is “CNS+ (‘CNS+’ (prediction of high BBB permeation); Pe (10^−6 cm s^−1) > 4.39)”.

Turning to `COc1ccc(C(=O)CC2CC(=O)N(CCCSc3nnc(Cc4ccccc4Nc4c(Cl)cccc4Cl)n3-c3ccc(Cl)c(Cl)c3)C2=O)cc1` (stereo not shown) [Compound 31, 1-(3-((4-(3,4-Dichlorophenyl)-5-(2-((2,6-dichlorophenyl)amino)benzyl)-4H-1,2,4-triazol-3-yl)thio)propyl)-3-(2-(4-methoxyphenyl)-2-oxoethyl)pyrrolidine-2,5-dione], the Acute toxicity outcome in [2] is “all animals were found alive”. Also, the half-inhibitory concentration (IC50) against eeAChE worked out at 0.08 ± 0.01 µM; against hMAO-A, 4.63 ± 0.31 µM; on 5-LOX, 51.3 ± 1.37 µM; at eqBChE, 48.1 ± 1.51 µM; against hMAO-B, 0.024 ± 0.001 µM. The “SI (IC50 eqBChE/IC50 eeAChE)” value on eeAChE was determined as 601.2. The “SI (IC50 hMAO-A/IC50 hMAO-B)” value at hMAO-B came to 193.

As to `NS(=O)(=O)c1ccc(NCSc2nnc(Cc3ccccc3Nc3c(Cl)cccc3Cl)n2-c2ccc(Cl)c(Cl)c2)cc1` [Compound 15, 4-((5-(2-(2,6-dichlorophenylamino)benzyl)-4-(3,4-dichlorophenyl)-4H-1,2,4-triazol-3-ylthio)methylamino)benzenesulfonamide], the Acute toxicity outcome in data set [2] is “all animals were found alive”. Further, the IC50 was 0.11 ± 0.01 µM against eeAChE; 1.21 ± 0.07 µM against hMAO-A; 3.42 ± 0.21 µM against 5-LOX; 2.99 ± 0.33 µM at eqBChE; 0.89 ± 0.33 µM against hMAO-B; 0.16 ± 0.04 µM against COX-2. Besides, the “SI (IC50 eqBChE/IC50 eeAChE)” value at eeAChE came to 27.2. Also, in data set [3], the “Neurotoxicity (cell viability, MTT)” value was “low neurotoxicity”. For the same molecule, the “SI (IC50 hMAO-A/IC50 hMAO-B)” value at hMAO-B amounted to 1.3. Moreover, in [1], the Papp at 20 h turned out to be 6.36 ± 0.3 ×10⁻⁶ cm/s. Also, the “Prediction (PAMPA-BBB) (CNS+, CNS−)” value in [1] is given as “CNS+ (‘CNS+’ (prediction of high BBB permeation); Pe (10^−6 cm s^−1) > 4.39)”.

With `Cc1nnc2n1-c1ccc(Cl)cc1C(c1ccccc1)=NC2` [Alprazolam, reference compound], the “Prediction (PAMPA-BBB) (CNS+, CNS−)” value in data set [1] is “CNS+ (‘CNS+’ (prediction of high BBB permeation); Pe (10^−6 cm s^−1) > 4.39)”.

As for “N-(2-((5-(4-(4aH-Phenothiazin-10(10aH)-yl)butylthio)-4-(3,4-dichlorophenyl)-4H-1,2,4-triazol-3-yl)methyl)phenyl)-2,6-dichlorobenzenamine [Compound 33]”, the Acute toxicity outcome in [2] is listed as “all animals were found alive”. In addition, the IC50 at eeAChE (read-out: IC50 (μM) ± SEM eeAChE) was found to be 0.05 µM; on hMAO-A (read-out: IC50 (μM) ± SEM hMAO-A) it was 8.55 ± 0.26 µM; at 5-LOX (read-out: IC50 (μM) ± SEM 5-LOX), 9.11 ± 0.08 µM; on eqBChE (read-out: IC50 (μM) ± SEM eqBChE), 5.89 ± 1 µM; at hMAO-B (read-out: IC50 (μM) ± SEM hMAO-B), 0.13 ± 0.01 µM; on COX-2 (read-out: IC50 (μM) ± SEM COX-2, NA = no activity found in tested concentration) it was 23 ± 0.92 µM. The “SI (IC50 eqBChE/IC50 eeAChE)” value at eeAChE was 117.8. Further, in data set [3], the “Neurotoxicity (cell viability, MTT)” value is “no neurotoxicity”. Besides, at hMAO-B, the “SI (IC50 hMAO-A/IC50 hMAO-B)” value came to 65.7. Also, the “Prediction (PAMPA-BBB) (CNS+, CNS−)” value in data set [1] is listed as “CNS+ (‘CNS+’ (prediction of high BBB permeation); Pe (10^−6 cm s^−1) > 4.39)”. In addition, in data set [1] (pH 7.4, 20 hours, room temperature), the “Permeability (PAMPA-BBB) Pe(tested)” value was 9.05 ± 0.20 10^−6 cm s^−1.

What is called IC50 is the concentration that gives 50% inhibition. A word on the Papp: it is a coefficient for how fast a substance crosses the barrier.

The record behind these values is paper PMC9366597 (RSC Advances, 2022).
